Where “and” joins values, the source holds several entries; their conditions need not be identical. Identical values can stand only once. Like-named read-outs stand apart in the source and are kept apart here.
Experiments:
human α-thrombin = human α-thrombin (Homo sapiens, UniProt P00734); assay: Protease inhibition, Ki for human α-thrombin (fluorogenic substrate Z-Gly-Gly-Arg-AMC); format: biochemical; settings: human alpha thrombin; for Slope normalized to DMSO (proteolytic substrate cleavage over time): replicates R1-R3
Outline: (§1)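 Ki values come from Cheng–Prusoff correction of IC50, itself fitted by four-parameter logistic regression of activity versus a no-peptide control. Assays used 2 nM human or 3 nM rat thrombin, 50 μM Z-Gly-Gly-Arg-AMC, 30 min kinetic fluorescence at 25 °C.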

rat α-thrombin = molecular target: T1, rat α-thrombin (Rattus norvegicus, UniProt P18292); assay: Protease inhibition, Ki for rat α-thrombin (fluorogenic substrate Z-Gly-Gly-Arg-AMC); format: biochemical; settings: rat alpha thrombin; for Slope normalized to DMSO (proteolytic substrate cleavage over time): replicates R1-R3
T1 construct: rat α-thrombin (Molecular Innovations) were used at final concentrations of 2 nM and 3 nM; purchased Molecular Innovations
Outline: as §1

[1] = Peptide stability in simulated intestinal fluid (SIF); format: in vitro ADME, porcine; settings: simulated gi fluid; 8 h, 37 °C, pH 6.8; read-out: Proteolytic stability: SIF (8 h) % remaining
Outline: (§2)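 Peptide from a 1 mM DMSO stock was added to fluid pre-warmed at 37 °C. SGF was pH 1.2 NaCl with porcine pepsin (0.32 g per 100 ml), and SIF was pH 6.8 potassium phosphate with porcine pancreatin (1 g per 100 ml). Supernatant peptide was quantified by LC–MS, with residual expressed as T1/T0.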

porcine pancreatin = assay: as above; format: in vitro ADME; settings: after 8 h vs 0 h (TIC)
Outline: as §2

[2] = Passive artificial membrane permeability (PAMPA)
Procedure: The plate system consisted of a 96-well microwell plate (donor wells) and a 96-well insert containing a PVDF membrane coated with tri-layers of phospholipids (acceptor wells). Permeability was measured from the bottom plate (donor wells) to the top insert (acceptor wells). Cyclic peptide or reference compound solutions were prepared at a concentration of 50 μM in PBS buffer (pH 7.4) containing 5% DMSO, and 300 μl of the resulting solutions was placed into the donor wells of the PAMPA plate. Acceptor wells were prepared by adding 200 μl of PBS buffer (pH 7.4) containing 5% DMSO. The insert was stacked onto the donor plate, and the system was covered with a lid to avoid evaporation. […] Additionally, 3:2 dilutions of the 50 μM cyclic peptide stocks were prepared in PBS buffer (pH 7.4) containing 5% DMSO to yield a sample corresponding to the theoretical equilibrium between donor and acceptor wells. The samples were run on the LC–MS to measure the cyclic peptide concentration representing maximum permeability. Permeability percent was calculated using equation (4) below.4 Permeability%=PeptideAcceptor/PeptideEquilibrated×100 where [PeptideAcceptor] represents the AUC measured on the LC–MS for the acceptor wells, and [PeptideEquilibrated] represents the AUC measured for the samples diluted to the theoretical equilibrium. Detection limit for the assay was typically at 1% permeability.
Papp values were calculated using equation (5).5 Papp=VD×VA/VD+VA×A×t×−ln1−PeptideAcceptor/PeptideEquilibrated where VD and VA are the volumes of donor and acceptor wells, respectively; A is the area of the membrane; and t is the incubation time.

[3] = Metabolic stability in rat liver microsomes (RLMs); settings: for microsomal CLint / half-life: rat, microsomes

SMILES: O=C1C[C@H]2CCCN2C(=O)[C@H](Cc2ccccc2)NC(=O)[C@@H](NC(=O)c2ccc(Cl)s2)CCCSC/C=C/CSCCN1 [compound 36]
- Ki (human α-thrombin; average of R1-R3, read-out: Ki Average, human alpha thrombin inhibition): 0.286 µM
- Slope normalized to DMSO (proteolytic substrate cleavage over time) (human α-thrombin; peptide 1.02E-03 uM): 96.6 and 96.1 and 97.6
- Slope normalized to DMSO (proteolytic substrate cleavage over time) (human α-thrombin; peptide 1.04E+00 uM): 45.5 and 28.3 and 38.4
- Slope normalized to DMSO (proteolytic substrate cleavage over time) (human α-thrombin; peptide 1.27E-04 uM): 99.5 and 101.3 and 100.1
- Slope normalized to DMSO (proteolytic substrate cleavage over time) (human α-thrombin; peptide 1.30E-01 uM): 62.0 and 52.8 and 61.8
- Slope normalized to DMSO (proteolytic substrate cleavage over time) (human α-thrombin; peptide 1.59E-05 uM): 98.6 and 105.1 and 101.6
- Slope normalized to DMSO (proteolytic substrate cleavage over time) (human α-thrombin; peptide 1.63E-02 uM): 86.9 and 79.7 and 80.1
- Slope normalized to DMSO (proteolytic substrate cleavage over time) (human α-thrombin; peptide 1.67E+01 uM): 5.9 and 8.4 and 12.3
- Slope normalized to DMSO (proteolytic substrate cleavage over time) (human α-thrombin; peptide 2.03E-03 uM): 95.9 and 89.0 and 96.4
- Slope normalized to DMSO (proteolytic substrate cleavage over time) (human α-thrombin; peptide 2.08E+00 uM): 22.1 and 26.4 and 30.9
- Slope normalized to DMSO (proteolytic substrate cleavage over time) (human α-thrombin; peptide 2.54E-04 uM): 98.5 and 99.2 and 101.9
- Slope normalized to DMSO (proteolytic substrate cleavage over time) (human α-thrombin; peptide 2.60E-01 uM): 51.6 and 49.5 and 56.4
- Slope normalized to DMSO (proteolytic substrate cleavage over time) (human α-thrombin; peptide 3.18E-05 uM): 101.8 and 100.2 and 98.7
- Slope normalized to DMSO (proteolytic substrate cleavage over time) (human α-thrombin; peptide 3.26E-02 uM): 82.4 (2×) and 76.9
- Slope normalized to DMSO (proteolytic substrate cleavage over time) (human α-thrombin; peptide 3.33E+01 uM): 6.3 and 6.8 and 11.7
- Slope normalized to DMSO (proteolytic substrate cleavage over time) (human α-thrombin; peptide 4.07E-03 uM): 100.1 and 90.9 and 93.8
- Slope normalized to DMSO (proteolytic substrate cleavage over time) (human α-thrombin; peptide 4.17E+00 uM): 10.9 and 18.5 and 22.2
- Slope normalized to DMSO (proteolytic substrate cleavage over time) (human α-thrombin; peptide 5.09E-04 uM): 105.8 and 102.8 and 98.4
- Slope normalized to DMSO (proteolytic substrate cleavage over time) (human α-thrombin; peptide 5.21E-01 uM): 63.9 and 55.1 and 63.1
- Slope normalized to DMSO (proteolytic substrate cleavage over time) (human α-thrombin; peptide 6.36E-05 uM): 96.6 and 96.9 and 98.9
- Slope normalized to DMSO (proteolytic substrate cleavage over time) (human α-thrombin; peptide 6.51E-02 uM): 69.9 and 61.7 and 72.5
- Slope normalized to DMSO (proteolytic substrate cleavage over time) (human α-thrombin; peptide 6.67E+01 uM): 8.8 and 12.5 and 11.5
- Slope normalized to DMSO (proteolytic substrate cleavage over time) (human α-thrombin; peptide 7.95E-06 uM): 102.0 and 99.6 and 99.3
- Slope normalized to DMSO (proteolytic substrate cleavage over time) (human α-thrombin; peptide 8.14E-03 uM): 95.5 and 84.9 and 92.8
- Slope normalized to DMSO (proteolytic substrate cleavage over time) (human α-thrombin; peptide 8.33E+00 uM): 4.1 and 13.8 and 13.6
- IC50 (human α-thrombin; single replicates R1-R3, read-out: IC50, human alpha thrombin inhibition): 0.453 µM and 0.218 µM and 0.444 µM
- Ki (human α-thrombin; single replicates R1-R3, read-out: Ki, human alpha thrombin inhibition): 0.349 µM and 0.168 µM and 0.342 µM
- Ki (rat α-thrombin; average of R1-R3, read-out: Ki Average, rat alpha thrombin inhibition): 0.0271 µM
- Slope normalized to DMSO (proteolytic substrate cleavage over time) (rat α-thrombin; peptide 1.02E-03 uM): 95.7 and 93.2 and 92.5
- Slope normalized to DMSO (proteolytic substrate cleavage over time) (rat α-thrombin; peptide 1.04E+00 uM): 20.0 and 16.8 and 13.2
- Slope normalized to DMSO (proteolytic substrate cleavage over time) (rat α-thrombin; peptide 1.27E-04 uM): 100.2 (2×) and 94.0
- Slope normalized to DMSO (proteolytic substrate cleavage over time) (rat α-thrombin; peptide 1.30E-01 uM): 40.2 and 33.7 and 29.3
- Slope normalized to DMSO (proteolytic substrate cleavage over time) (rat α-thrombin; peptide 1.59E-05 uM): 102.8 and 104.6 and 99.0
- Slope normalized to DMSO (proteolytic substrate cleavage over time) (rat α-thrombin; peptide 1.63E-02 uM): 70.9 and 69.0 and 58.5
- Slope normalized to DMSO (proteolytic substrate cleavage over time) (rat α-thrombin; peptide 1.67E+01 uM): 6.7 and 7.6 and -3.8
- Slope normalized to DMSO (proteolytic substrate cleavage over time) (rat α-thrombin; peptide 2.03E-03 uM): 92.4 and 90.4 and 105.7
- Slope normalized to DMSO (proteolytic substrate cleavage over time) (rat α-thrombin; peptide 2.08E+00 uM): 14.7 and 13.1 and 8.2
- Slope normalized to DMSO (proteolytic substrate cleavage over time) (rat α-thrombin; peptide 2.54E-04 uM): 98.1 and 97.6 and 92.4
- Slope normalized to DMSO (proteolytic substrate cleavage over time) (rat α-thrombin; peptide 2.60E-01 uM): 33.9 and 26.8 and 32.5
- Slope normalized to DMSO (proteolytic substrate cleavage over time) (rat α-thrombin; peptide 3.18E-05 uM): 102.6 and 99.4 and 97.6
- Slope normalized to DMSO (proteolytic substrate cleavage over time) (rat α-thrombin; peptide 3.26E-02 uM): 65.2 and 58.8 and 53.9
- Slope normalized to DMSO (proteolytic substrate cleavage over time) (rat α-thrombin; peptide 3.33E+01 uM): 6.5 and 6.8 and 3.9
- Slope normalized to DMSO (proteolytic substrate cleavage over time) (rat α-thrombin; peptide 4.07E-03 uM): 89.6 and 87.8 and 79.0
- Slope normalized to DMSO (proteolytic substrate cleavage over time) (rat α-thrombin; peptide 4.17E+00 uM): 10.5 and 9.5 and 2.3
- Slope normalized to DMSO (proteolytic substrate cleavage over time) (rat α-thrombin; peptide 5.09E-04 uM): 97.9 and 94.9 and 105.4
- Slope normalized to DMSO (proteolytic substrate cleavage over time) (rat α-thrombin; peptide 5.21E-01 uM): 40.1 and 33.7 and 38.8
- Slope normalized to DMSO (proteolytic substrate cleavage over time) (rat α-thrombin; peptide 6.36E-05 uM): 100.2 and 99.0 and 96.8
- Slope normalized to DMSO (proteolytic substrate cleavage over time) (rat α-thrombin; peptide 6.51E-02 uM): 49.2 and 44.9 and 38.0
- Slope normalized to DMSO (proteolytic substrate cleavage over time) (rat α-thrombin; peptide 6.67E+01 uM): 8.1 and 8.3 and 4.7
- Slope normalized to DMSO (proteolytic substrate cleavage over time) (rat α-thrombin; peptide 7.95E-06 uM): 104.1 and 101.6 and 100.1
- Slope normalized to DMSO (proteolytic substrate cleavage over time) (rat α-thrombin; peptide 8.14E-03 uM): 83.6 and 78.8 and 74.4
- Slope normalized to DMSO (proteolytic substrate cleavage over time) (rat α-thrombin; peptide 8.33E+00 uM): 19.0 and 7.9 and 5.9
- IC50 (rat α-thrombin; single replicates R1-R3, read-out: IC50, rat alpha thrombin inhibition): 0.0607 µM and 0.0432 µM and 0.043 µM
- Ki (rat α-thrombin; single replicates R1-R3, read-out: Ki, rat alpha thrombin inhibition): 33.6 nM (2×) and 23.9 nM (2×) and 23.8 nM (2×)
- remaining at 8 h [1]: 42 ± 5%
- SIF stability, Residual peptide Average (porcine pancreatin; average of R1-R3): 42.16
- SIF stability, Residual peptide (porcine pancreatin; single replicates R1-R3): 44.45 and 36.26 and 45.77
- PAMPA permeability: % permeability ([2]; 50 μM, 12–18 h, acceptor concentration relative to equilibrium): 26 ± 9%
- Papp at 50 μM ([2]; PAMPA, pH 7.4): 28.8 nm/s
- Permeability% Average ([2]; top well sample vs theoretical equilibrium sample (TIC), average of R1-R3): 26.1%
- Permeability% ([2]; top well sample vs theoretical equilibrium sample (TIC), single replicates R1-R3): 30.77% and 15.94% and 31.49%
- TIC value of compound, 0 min, R1 ([3]; rat liver microsomes, 0 min, replicate R1): 9960125
- TIC value of compound, 0 min, R3 ([3]; rat liver microsomes, 0 min, replicate R3): 9584351
- TIC value of compound, 5 min, R1 ([3]; rat liver microsomes, 5 min, replicate R1): 8960155
- TIC value of compound, 5 min, R3 ([3]; rat liver microsomes, 5 min, replicate R3): 9591941
- TIC value of compound, 15 min, R1 ([3]; rat liver microsomes, 15 min, replicate R1): 6029519
- TIC value of compound, 15 min, R3 ([3]; rat liver microsomes, 15 min, replicate R3): 6211335
- TIC value of compound, 30 min, R1 ([3]; rat liver microsomes, 30 min, replicate R1): 3459884
- TIC value of compound, 30 min, R3 ([3]; rat liver microsomes, 30 min, replicate R3): 2699618
- TIC value of compound, 60 min, R1 ([3]; rat liver microsomes, 60 min, replicate R1): 607530
- TIC value of compound, 60 min, R3 ([3]; rat liver microsomes, 60 min, replicate R3): 705245
- microsomal CLint ([3]; CL (ul/min/mg protein), R1, RLM CL, replicate R1, unrounded): 70.7 µL/min/mg
- microsomal CLint ([3]; CL (ul/min/mg protein), R2, RLM CL, replicate R2, unrounded): 61.9 µL/min/mg
- microsomal CLint ([3]; CL (ul/min/mg protein), R3, RLM CL, replicate R3, unrounded): 69.3 µL/min/mg
- half-life ([3]; Half Life (min), R1, RLM metabolic stability, replicate R1): 19.6 min
- half-life ([3]; Half Life (min), R2, RLM metabolic stability, replicate R2): 22.4 min
- half-life ([3]; Half Life (min), R3, RLM metabolic stability, replicate R3): 20 min
- half-life ([3]; Metabolic stability: Half life T1/2 (min), RLMs, mean and SD, three measurements): 21 ± 1 min
- microsomal CLint ([3]; Metabolic stability: RLM CL (ul/min/mg), RLMs, mean and SD, three measurements): 67 ± 4 µL/min/mg
- microsomal CLint ([3]; RLM CL, Average, average of R1-R3): 67.3 µL/min/mg
- microsomal CLint ([3]; RLM CL, R1, RLM CL, replicate R1, summary block): 70.7 µL/min/mg
- microsomal CLint ([3]; RLM CL, R2, RLM CL, replicate R2, summary block): 61.9 µL/min/mg
- microsomal CLint ([3]; RLM CL, R3, RLM CL, replicate R3, summary block): 69.3 µL/min/mg
